Laboratory results taken from patent publication US10793567B2, “Bicyclic inhibitors of histone deacetylase” (Rodin Therapeutics, Inc., priority 2017, dated 2020).

Columns and labels:
HDAC2 = HDAC2 (Homo sapiens (Human), UniProt Q92769); assay: HDAC2 enzymatic assay (Caliper LabChip, peptide deacetylation); assay type: biochemical; conditions: 17 hours, 25° C.
Protocol: The following describes an assay protocol for measuring the deacetylation of a peptide substrate by the enzymes HDAC2 or HDAC1. Enzyme, substrate, and cofactors are combined in a well of a microtiter plate and incubated for […] at 25° C. At the end of the incubation, the reaction is quenched by the addition of an SDS-containing buffer. Substrate and product are separated and quantified electrophoretically using the microfluidic-based LabChip 3000 Drug Discovery System from Caliper Life Sciences. The peptide substrate used in this assay is FAM-TSRHK(AC)KL-CONH2 (FAM is carboxyfluorescein). Peptide should be >98% purity by Capillary Electrophoresis. • 1. To a well of a 384-well plate, add 5 μL of 2× enzyme buffer. Using Labcyte Echo 550, add 100 nl compound. Enzyme and compound may be pre-incubated at this time if desired. • 2. Add 5 μL of 2× substrate buffer. • 3. Incubate plate at 25° C. for 17 hours. • 4. Terminate reaction by adding 40 μL of 1.55× stop buffer. • 5. Create job on a Caliper LabChip® 3000 Drug Discovery System. • 6. […]
Substrate and product peptides present in each sample are separated electrophoretically using the LabChip 3000 capillary electrophoresis instrument. As substrate and product peptides are separated, two peaks of fluorescence are observed. Change in the relative fluorescence intensity of the substrate and product peaks is the parameter measured, reflecting enzyme activity. Capillary electrophoregramms (RDA acquisition files) are analyzed using HTS Well Analyzer software (Caliper Life Sciences). The […] in each sample is determined as the product to sum ratio (PSR): P/(S+P), where P is the peak height of the product peptide and S is the peak height of the substrate peptide. For each compound, enzyme activity is measured at various concentrations (12 concentrations of compound spaced by 3× dilution intervals). […]
The IC50 values of inhibitors are determined by fitting the inhibition curves (Pinh versus inhibitor concentration) by 4 parameter sigmoidal dose-response model using XLfit 4 software (IBDS). […]

[1] = test system: human erythroid progenitors (CFU-E, BFU-E); assay: Erythroid CFU assay (colony forming cell assay, bone marrow); assay type: cell-based; conditions: 14 days in culture
Protocol: Compounds were tested to evaluate the potential effects on human erythroid and myeloid progenitors using colony forming cell assays. Clonogenic progenitors of human erythroid (CFU-E, BFU-E), granulocyte-monocyte (CFU-GM) and multipotential (CFU-GEMM) lineages were assessed in a semi-solid methylcellulose-based media formulation containing rhlL-3 (10 ng/mL), rhGM-SCF (10 ng/mL), rhSCF (50 ng/mL) and Epo (3 U/mL).
Normal human bone marrow light density cells derived from normal bone marrow (NorCal Biologics, California), were stored in the gaseous phase of liquid nitrogen (−152° C.) until required for the assay. On the day of the experiment, the cells were thawed rapidly, the contents of each vial was diluted in 10 mL of Iscove's modified Dulbecco's medium containing 10% fetal bovine serum (IMDM+10% FBS) and washed by centrifugation (approximately 1200 r.p.m. for 10 minutes, room temperature). The supernatant was discarded and the cell pellets resuspended in a known volume of IMDM+10% FBS. A cell count (3% glacial acetic acid) and viability assessment (trypan blue exclusion test) was performed for the bone marrow sample.
On the day of the experiment, the compounds were dissolved in DMSO to a stock concentration of 10 mM. Serial dilutions were prepared from the stock concentration to achieve concentrations of 2 and 0.4 mM. When added to the methylcellulose-based media at 1:1000 (v/v), the final test concentrations of 10, 2 and 0.4 μM were achieved. Additionally, 5-FU was evaluated at 1.0, 0.1 and 0.01 μg/mL.
Clonogenic progenitors of the human erythroid (CFU-E and BFU-E) and myeloid (CFU-GM) lineages were set up in the methylcellulose-based media formulations described above. All compounds were added to the medium to give the final desired concentrations (10, 2 and 0.4 μM). 5-Fluorouracil (Sigma Aldrich) was used as a positive control for progenitor proliferation (inhibition of colony growth) and was introduced to the human bone marrow cultures at 1.0, 0.1, and 0.01 μg/mL. Solvent control cultures (containing no compound but 0.1% DMSO) as well as standard controls (containing no compound and no DMSO) were also initiated.
Human myeloid and erythroid progenitor assays were initiated at 2.0×10^4 cells per culture. Following 14 days in culture, myeloid and erythroid colonies were assessed microscopically and scored by trained personnel. The colonies were divided into the following categories based on size and morphology: CFU-E, BFU-E, CFU-GM and CFU-GEMM.
The mean±one standard deviation of three replicate cultures was calculated for progenitors of each category (CFU-E, BFU-E, etc.). Two-tailed t-tests were performed to assess if there was a difference in the number of colonies generated between solvent control and treated cultures. Due to the potential subjectivity of colony enumeration, a p value of less than 0.01 is deemed significant. To calculate the concentration of 50% inhibition of colony growth (IC50) for each compound, a dose response curve was generated plotting the log of the compound concentration versus the percentage of control colony growth using XLfit software (IDBS). The concentration of 50% inhibition of colony growth (IC50) was calculated based on the sigmoid curve fit using Dose-Response, One-Site Model formula: y=A+[(B−A)/(1+((C/x)^D))], where A=the initial value (baseline response), B=maximum response, C=center (drug concentration that provokes a response halfway between A and B) and D=slope of the curve at midpoint. Further, plots and additional dose response curves were generated using GraphPad Prism 7.0.
Erythroid (CFU-E and BFU-E), myeloid (CFU-GM) and multi-potential (CFU-GEMM) colony enumeration was performed by trained personnel. The distribution of colony types as well as general colony and cellular morphology was analyzed. For statistical analysis colony numbers in compound treated cultures were compared to the solvent control cultures. […]

Chain of HDAC2 (Q92769 whole entry): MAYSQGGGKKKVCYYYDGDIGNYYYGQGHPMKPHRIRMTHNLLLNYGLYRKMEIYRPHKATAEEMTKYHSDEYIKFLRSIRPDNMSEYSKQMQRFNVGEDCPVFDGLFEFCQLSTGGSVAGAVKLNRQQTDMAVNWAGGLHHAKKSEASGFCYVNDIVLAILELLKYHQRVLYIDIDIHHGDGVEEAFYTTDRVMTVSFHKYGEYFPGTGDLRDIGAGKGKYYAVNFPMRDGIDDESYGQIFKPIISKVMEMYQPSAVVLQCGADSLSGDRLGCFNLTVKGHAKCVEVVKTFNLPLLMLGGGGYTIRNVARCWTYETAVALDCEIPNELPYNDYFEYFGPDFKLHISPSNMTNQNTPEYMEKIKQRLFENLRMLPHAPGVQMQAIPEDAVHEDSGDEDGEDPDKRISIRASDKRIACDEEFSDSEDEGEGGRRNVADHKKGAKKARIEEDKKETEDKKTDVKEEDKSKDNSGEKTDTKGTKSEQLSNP

| IC50 (HDAC2) [nM] | Erythroid % control @ 10 uM dose [1] [%] | SMILES |
| --- | --- | --- |
| 500 to 5000 | 98 | CCc1cc2c(cn1)CN(C(=O)Nc1nc(-c3cccnc3)ccc1N)C2 [Compound 8] |
| – | 40 | Cc1ncc2c(n1)CN(C(=O)Nc1nc(-c3ccc(F)s3)ccc1N)C2 [Compound 2] |
| – | 37 | Nc1ccc(-c2ccc(F)cc2)nc1NC(=O)N1Cc2cn(C3COC3)nc2C1 [Compound 1] |
| 500 to 5000 | 59.6 | CCc1ncc2c(n1)CN(C(=O)Nc1nc(-c3ccc(F)cc3)ccc1N)C2 [Compound 17] |
| – | 46.6 | CCc1ncc2c(n1)CN(C(=O)Nc1nc(-c3cccs3)ccc1N)C2 [Compound 3] |
| – | 53 | Cc1ncc2c(n1)CN(C(=O)Nc1nc(-c3ccc(F)cc3)ccc1N)C2 [Compound 14] |
| – | 93 | Cc1cc2c(cn1)CN(C(=O)Nc1nc(-c3cccnc3)ccc1N)C2 [Compound 12] |
| – | 40.4 | COCCn1cc2c(n1)CN(C(=O)Nc1nc(-c3ccc(F)cc3F)ccc1N)C2 [Compound 9] |
